Drawing on patent US8399465B2, “Compounds with two fused bicyclic heteroaryl moieties as modulators of leukotriene A4 hydrolase” (Janssen Pharmaceutica NV, priority 2009, dated 2013), this text covers IC50 for 26 compounds.

Each structure is given as a SMILES string. Where a name gives a salt, the structure may show the parent alone.

The target in test [1] is T1, recombinant human LTA4 hydrolase (rhLTA4H) (Homo sapiens, UniProt P09960).
T1 construct: made in house; host or cells: Spodoptera frugiperda (Sf-9) cells, baculovirus (pFastBac1)
T1 sequence (P09960 1-611): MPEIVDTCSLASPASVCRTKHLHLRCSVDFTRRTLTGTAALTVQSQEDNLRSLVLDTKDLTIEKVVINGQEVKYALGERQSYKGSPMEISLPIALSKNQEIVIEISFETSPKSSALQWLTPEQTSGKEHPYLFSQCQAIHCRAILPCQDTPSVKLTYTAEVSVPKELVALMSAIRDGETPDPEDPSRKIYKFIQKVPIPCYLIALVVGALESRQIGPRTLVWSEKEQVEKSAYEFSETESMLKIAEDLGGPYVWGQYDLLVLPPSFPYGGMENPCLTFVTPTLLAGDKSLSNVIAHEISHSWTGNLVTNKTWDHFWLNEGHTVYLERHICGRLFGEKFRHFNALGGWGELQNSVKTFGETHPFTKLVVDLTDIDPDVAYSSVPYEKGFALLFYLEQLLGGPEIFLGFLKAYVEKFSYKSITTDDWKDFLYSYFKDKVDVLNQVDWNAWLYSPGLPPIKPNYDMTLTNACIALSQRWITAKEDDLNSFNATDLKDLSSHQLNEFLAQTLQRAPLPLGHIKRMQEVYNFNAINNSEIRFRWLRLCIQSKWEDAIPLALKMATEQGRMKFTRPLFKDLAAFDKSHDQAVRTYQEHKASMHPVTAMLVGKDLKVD
Kind of test: Recombinant human LTA4 hydrolase assay for LTA4 hydrolase inhibitor activity. The test is classed as biochemical. Particulars: rhLTA4H, LTB4 by immunoassay; single determination or average of two or more; mark after value = form tested: ′ free base, ″ hydrochloride, ^ formate; read-out: IC50. In a few lines:
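LTB4 formation, measured by enzyme immunoassay, was the read-out. The enzyme, recombinant human LTA4H expressed in Sf-9 insect cells (10 ng per reaction), was exposed to compound for 10 min at room temperature before hydrolysed-ester LTA4 substrate was added for 30 min. Enzyme-free negatives were included.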

Test [2] deals with LTB4 production in murine blood (LTA4H). Kind of test: LTB4 production by calcium ionophore-stimulated murine blood for LTA4H inhibitor activity. The test is classed as cell-based, CD-1 mice. Particulars: Mus musculus; murine blood diluted 1 in 15, A23187 stimulated; single determination or average; mark after value = form tested: ′ free base, ″ hydrochloride, ^ formate; read-out: IC50. The procedure:
Assay 2: LTB4 Production by Calcium Ionophore-Stimulated Murine Blood for LTA4H Inhibitor Activity
CD-1 mice were sacrificed, and blood was collected in heparin-containing syringes by cardiac puncture. […] After the microtiter plate contents were incubated for 15 min at 37° C. in a humidified incubator, calcium ionophore A23187 (Sigma Chemical Co., St. Louis, Mo.) was added to each sample well (final concentration=7 μg/mL). The incubation was continued under the same conditions for an additional 30 min to allow LTB4 formation. The reaction was terminated by centrifugation (833×g, 10 min at 4° C.), and supernatants were analyzed for LTB4 by a commercially available enzyme-linked immunoassay (Cayman Chemical Co.) according to the manufacturer's instructions. Positive controls, under essentially identical conditions but without addition of an inhibitor compound, and negative unstimulated controls, containing all assay components except calcium ionophore, were routinely run in each experiment. […] The values presented here are the result of a single determination or an average of two or more determinations.

The term IC50 denotes the concentration needed to halve the response being measured. As for `CS(=O)(=O)C1CCN(Cc2cc3cc(Oc4nc5ncccc5s4)ccc3o2)CC1` [Example 92, 2-[2-(4-Methanesulfonyl-piperidin-1-ylmethyl)-benzofuran-5-yloxy]-thiazolo[4,5-b]pyridine], the IC50 in test [1] stood at 51 nM; in test [2], 400 nM.
In the same order, the values of `Fc1ccc(CNCc2coc3cc(Oc4nc5ncccc5s4)ccc23)cc1` [Example 345, (4-Fluoro-benzyl)-[6-(thiazolo[4,5-b]pyridin-2-yloxy)-benzofuran-3-ylmethyl]-amine] are 7 nM and 72 nM.
In the same order, the values of `COC1CCN(Cc2coc3cc(Oc4nc5ncccc5s4)ccc23)CC1` [Example 271, 2-[3-(4-Methoxy-piperidin-1-ylmethyl)-benzofuran-6-yloxy]-thiazolo[4,5-b]pyridine formate] are 5 nM and 79 nM.
For `c1ccc2sc(Oc3ccc4c(CN5C[C@@H]6C[C@H]5CO6)c[nH]c4c3)nc2c1` [Example 12, (1S,4S)-2-[3-(2-Oxa-5-aza-bicyclo[2.2.1]hept-5-ylmethyl)-1H-indol-6-yloxy]-benzothiazole], in that order: 13 nM and 250 nM.
`Clc1ccc2sc3c(c2c1)CCN(Cc1c[nH]c2cc(Oc4nc5ncccc5s4)ccc12)C3` [Example 37, 6-Chloro-2-[6-(thiazolo[4,5-b]pyridin-2-yloxy)-1H-indol-3-ylmethyl]-1,2,3,4-tetrahydro-benzo[4,5]thieno[2,3-c]pyridine formate]: the IC50 in test [1] worked out at 8 nM; in test [2], 310 nM.
For `O=C(c1coc2cc(Oc3nc4ncccc4s3)ccc12)N1CCC(c2ccccc2)CC1` [Example 377, (4-Phenyl-piperidin-1-yl)-[6-(thiazolo[4,5-b]pyridin-2-yloxy)-benzofuran-3-yl]-methanone], in that order: 20 nM and 410 nM.
Regarding `c1cnc2nc(Oc3ccc4c(CN5CCOCC5)c[nH]c4c3)sc2c1` [Example 40, 2-(3-Morpholin-4-ylmethyl-1H-indol-6-yloxy)-thiazolo[4,5-b]pyridine], the values for the IC50 in test [1] and in test [2] were 2 nM and 23 nM, respectively.
Regarding `c1cnc2nc(Oc3ccc4c(CN5CCC(N6CCCCC6)CC5)coc4c3)sc2c1` [Example 284, 1′-[6-(Thiazolo[4,5-b]pyridin-2-yloxy)-benzofuran-3-ylmethyl]-[1,4′]bipiperidinyl formate], the half-maximal inhibitory concentration (IC50) in test [1] is 24 nM; in test [2], 160 nM.
In the same order, the values of `NC(=O)C1CCN(Cc2c[nH]c3cc(Oc4nc5ncccc5s4)ccc23)CC1` [Example 17, 1-[6-(Thiazolo[4,5-b]pyridin-2-yloxy)-1H-indol-3-ylmethyl]-piperidine-4-carboxylic acid amide] are 2 nM and 118 nM.
In the same order, the values of `CN(CCC(=O)O)Cc1coc2cc(Oc3nc4ncccc4s3)ccc12` [Example 335, 3-{Methyl-[6-(thiazolo[4,5-b]pyridin-2-yloxy)-benzofuran-3-ylmethyl]-amino}-propionic acid formate] are 5 nM and 200 nM.
For `c1cnc2nc(Oc3ccc4c(CN5CCC(N6CCOCC6)CC5)coc4c3)sc2c1` [Example 285, 2-[3-(4-Morpholin-4-yl-piperidin-1-ylmethyl)-benzofuran-6-yloxy]-thiazolo[4,5-b]pyridine formate], in that order: 16 nM and 50 nM.
As to `Fc1ccc2sc3c(c2c1)CN(Cc1c[nH]c2cc(Oc4nc5ncccc5s4)ccc12)CC3` [Example 38, 8-Fluoro-2-[6-(thiazolo[4,5-b]pyridin-2-yloxy)-1H-indol-3-ylmethyl]-1,2,3,4-tetrahydro-benzo[4,5]thieno[3,2-c]pyridine], the IC50 in test [1] is 29 nM; in test [2], 350 nM.
In the same order, the values of `c1cnc2nc(Oc3ccc4c(CN5CCCCC5)coc4c3)sc2c1` [Example 212, 2-(3-Piperidin-1-ylmethyl-benzofuran-6-yloxy)-thiazolo[4,5-b]pyridine] are 4 nM and 19 nM.
For `c1ccc2c(c1)CN(Cc1coc3cc(Oc4nc5ncccc5s4)ccc13)C2` [Example 331, 2-[3-(1,3-Dihydro-isoindol-2-ylmethyl)-benzofuran-6-yloxy]-thiazolo[4,5-b]pyridine], in that order: 54 nM and 1060 nM.
For `c1ccc(N2CCN(Cc3coc4cc(Oc5nc6ncccc6s5)ccc34)CC2)cc1` [Example 287, 2-[3-(4-Phenyl-piperazin-1-ylmethyl)-benzofuran-6-yloxy]-thiazolo[4,5-b]pyridine formate], in that order: 26 nM and 240 nM.
In the case of `COc1ccc(N2CCN(Cc3coc4cc(Oc5nc6ncccc6s5)ccc34)CC2)cc1` [Example 290, 2-{3-[4-(4-Methoxy-phenyl)-piperazin-1-ylmethyl]-benzofuran-6-yloxy}-thiazolo[4,5-b]pyridine formate], the figures for the half-maximal inhibitory concentration (IC50) in test [1] and in test [2] were 40 nM and 170 nM, respectively.
For `c1cnc2nc(Oc3ccc4oc(CN5CCCCC5)cc4c3)sc2c1` [Example 86, 2-(2-Piperidin-1-ylmethyl-benzofuran-5-yloxy)-thiazolo[4,5-b]pyridine], in that order: 68 nM and 85 nM.
In the case of `CCOC(=O)NC1CCN(Cc2c[nH]c3cc(Oc4nc5ccccc5s4)ccc23)CC1` [Example 29, {1-[6-(Benzothiazol-2-yloxy)-1H-indol-3-ylmethyl]-piperidin-4-yl}-carbamic acid ethyl ester], the results for the IC50 in test [1] and in test [2] were 15 nM and 234 nM, respectively.
In the same order, the values of `CN(Cc1ccccc1)Cc1c[nH]c2cc(Oc3nc4ccccc4s3)ccc12` [Example 5, [6-(Benzothiazol-2-yloxy)-1H-indol-3-ylmethyl]-benzyl-methyl-amine] are 54 nM and 901 nM.
For `CC(=O)N1[C@@H]2CC[C@H]1C[C@H](NCc1coc3cc(Oc4nc5ncccc5s4)ccc13)C2` [Example 333, meso-exo-1-(3-{[6-(Thiazolo[4,5-b]pyridin-2-yloxy)-benzofuran-3-ylmethyl]-amino}-8-aza-bicyclo[3.2.1]oct-8-yl)-ethanone formate], in that order: 6 nM and 24 nM.
In the same order, the values of `c1cnc2nc(Oc3ccc4c(CN5CCN6CCCC6C5)coc4c3)sc2c1` (stereo not shown) [Example 326, 2-[3-(Hexahydro-pyrrolo[1,2-a]pyrazin-2-ylmethyl)-benzofuran-6-yloxy]-thiazolo[4,5-b]pyridine] are 21 nM and 120 nM.
Take `CS(=O)(=O)NC1CCN(Cc2coc3cc(Oc4nc5ccccc5s4)ccc23)CC1` [Example 363, N-{1-[6-(Benzothiazol-2-yloxy)-benzofuran-3-ylmethyl]-piperidin-4-yl}-methanesulfonamide]: the IC50 in test [1] came out at 37 nM; in test [2], 400 nM.
For `c1ccc2sc(Oc3cnc4c(CN5CCOCC5)c[nH]c4c3)nc2c1` [Example 32, 2-(3-Morpholin-4-ylmethyl-1H-pyrrolo[3,2-b]pyridin-6-yloxy)-benzothiazole], in that order: 96 nM and 258 nM.
In the same order, the values of `CC(=O)N1CC2CN(Cc3c[nH]c4cc(Oc5nc6ccccc6s5)ccc34)CC2C1` (stereo not shown) [Example 54, 1-{5-[6-(Benzothiazol-2-yloxy)-1H-indol-3-ylmethyl]-hexahydro-pyrrolo[3,4-c]pyrrol-2-yl}-ethanone] are 4 nM and 165 nM.
In the same order, the values of `O=C(c1coc2cc(Oc3nc4ncccc4s3)ccc12)N1CCC(F)CC1` [Example 376, (4-Fluoro-piperidin-1-yl)-[6-(thiazolo[4,5-b]pyridin-2-yloxy)-benzofuran-3-yl]-methanone] are 13 nM and 85 nM.
For `O=C1Cc2ccc(Cl)cc2N1Cc1coc2cc(Oc3nc4ncccc4s3)ccc12` [Example 402, 6-Chloro-1-[6-(thiazolo[4,5-b]pyridin-2-yloxy)-benzofuran-3-ylmethyl]-1,3-dihydro-indol-2-one], the values for the IC50 in test [1] and in test [2] were 32 nM and 400 nM, respectively.
